Each block holds one compound with its values, some of them ahead of it.
System: 958667-338-R-J2-PDC tumor spheroids viability
Test: Anticancer human tumor 958667-338-R-J2-PDC patient-derived colon adenocarcinoma cell line growth inhibition [PI3K]
Details: spheroids with HUVEC and MSC; for IC50: curve of first compound; for viability, T/C: stronger effect = lower value
Source text: Combinatorial screen of targeted agents with the PI3K inhibitors inavolisib, alpelisib, duvelisib, and copanlisib in multi-cell type tumor spheroids
A high-throughput screen of multi-cell type tumor spheroids was designed to identify active combinations of targeted small molecules and PI3K pathway inhibitors. Complex spheroids include a stromal component modeled by human endothelial cells (HUVEC) and fibroblasts modeled by human mesenchymal stem cells (MSCs). The concentration ranges selected for each drug and investigational agent were based upon clinically achievable concentrations if the clinical Cmax of the agent was known.
Compounds. The drugs and investigational agents: inavolisib (NSC800729), alpelisib (NSC765974), duvelisib (NSC772469), copanlisib (NSC816437), ipatasertib (NSC767898), afuresertib (NSC778305), talazoparib (NSC767125), sapanisertib (NSC764658), selumetinib (NSC741078), tovorafenib (DAY101, NSC766906), vemurafenib (NSC761431), ravoxertinib (NSC781343), sotorasib (NSC818433), MRTX1133 (NSC 836407), abemaciclib (NSC 768073), palbociclib (NSC758247), venetoclax (NSC 766270), SY5609 (NSC837396), enzalutamide (NSC755605), and darolutamide (NSC825331), were obtained from the National Cancer Institute (NCI) Developmental Therapeutics Program Chemical Repository. The FDA-approved anticancer drug set is available from the NCI Developmental Therapeutics Program. […] The stock solutions were prepared in dimethyl sulfoxide (DMSO, Sigma-Aldrich, St. Louis, MO, cat. D2650) at 800-fold the tested concentration and stored at -70 degrees C prior to their use. All drugs and investigational agents were tested over a range starting from a high concentration at or near the clinical Cmax and decreasing in half-log increments. If the clinical Cmax for an agent had not been determined, the highest concentration tested was 10 microM.
Cell Culture. All cells were maintained in an incubator at 37 degrees C and 5% CO2 with 95% humidity. The PDC lines were cultured according to standard operating procedures established by the NCI PDMR (https://pdmr.cancer.gov/sops/default.htm). All PDCs were thawed and cultured in Matrigel-coated flasks prepared with a working solution of 1X Ham's F-12 nutrient mix, without supplementation (Invitrogen, Waltham, MA, cat. 11765054), 100 U/mL penicillin-streptomycin (Invitrogen, cat. 15140122), and 2.5% Matrigel (Corning Inc., Corning, NY, cat. 354248) for the first three passages. The 354836-022-R-J1-PDC, 475296-252-R-J1-PDC, and 997726-040-R-J2-PDC lines were cultured in 6A media, which includes advanced DMEM/F-12 (Thermo Fisher Scientific, cat. 12634028), 10 mM HEPES (Thermo Fisher Scientific, cat. 15630080), 1X GlutaMAX supplement (Thermo Fisher Scientific, cat. 35050061), 0.1 mg/mL primocin (InvivoGen, San Diego, CA, cat. ant-pm-2), 10% defined fetal bovine serum, heat inactivated (HyClone Laboratories Inc., Logan, UT, cat. SH30070.03HI), 50% L-WRN conditioned media (ATCC, cat. CRL-3276), 1.25 mM N-Acetyl-L-cysteine (Sigma-Aldrich, cat. A9165), 10 mM nicotinamide (Sigma-Aldrich, cat. N0636), 1X B-27 supplement (Thermo Fisher Scientific, cat. 17504044), 1X N-2 supplement (Thermo Fisher Scientific, cat. 17502048), and 10 microM Y-27632 dihydrochloride (Tocris Bioscience, Bristol, United Kingdom, cat. 1254). The 624824-186-R-J2-PDC line was cultured in 6C/Colon 1B media, which includes all 6A media components plus 50 ng/mL human EGF recombinant protein (Thermo Fisher Scientific, cat. PHG0311). […]

[1] = second compound 0.0316 µM, first compound 0.0316 µM
[2] = second compound 0.0316 µM, first compound 0.1 µM
[3] = second compound 0.1 µM, first compound 0.0316 µM
[4] = second compound 0.1 µM, first compound 0.1 µM
[5] = second compound 0.316 µM, first compound 0.0316 µM
[6] = second compound 0.316 µM, first compound 0.1 µM
[7] = second compound 1 µM, first compound 0.0316 µM
[8] = second compound 1 µM, first compound 0.1 µM
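Further: spheroids exposed to compounds for seven days before readout.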

IC50 (second compound 0.00316 µM): > 0.1 µM
IC50 (second compound 0.01 µM): > 0.1 µM
IC50 (second compound 0.0316 µM): > 0.1 µM
IC50 (second compound 0.1 µM): > 0.1 µM
IC50 (second compound 0.316 µM): > 0.1 µM
IC50 (second compound 1 µM): > 0.1 µM
SMILES: Cn1ncnc1[C@H]1c2n[nH]c(=O)c3cc(F)cc(c23)N[C@@H]1c1ccc(F)cc1 + CC(Nc1ccc2c(c1)OCCn1cc(N3C(=O)OCC3C(F)F)nc1-2)C(N)=O
viability, T/C (second compound 0.00316 µM, first compound 0.000316 µM): 111%
viability, T/C (second compound 0.00316 µM, first compound 0.001 µM): 107%
viability, T/C (second compound 0.00316 µM, first compound 0.00316 µM): 105%
viability, T/C (second compound 0.00316 µM, first compound 0.01 µM): 101%
viability, T/C (second compound 0.00316 µM, first compound 0.0316 µM): 112%
viability, T/C (second compound 0.00316 µM, first compound 0.1 µM): 95.9%
viability, T/C (second compound 0.01 µM, first compound 0.000316 µM): 93.8%
viability, T/C (second compound 0.01 µM, first compound 0.001 µM): 87.4%
viability, T/C (second compound 0.01 µM, first compound 0.00316 µM): 88.5%
viability, T/C (second compound 0.01 µM, first compound 0.01 µM): 117%
viability, T/C (second compound 0.01 µM, first compound 0.0316 µM): 85.7%
viability, T/C (second compound 0.01 µM, first compound 0.1 µM): 114%
viability, T/C (second compound 0.0316 µM, first compound 0.000316 µM): 82.8%
viability, T/C (second compound 0.0316 µM, first compound 0.001 µM): 95.9%
viability, T/C (second compound 0.0316 µM, first compound 0.00316 µM): 77.7%
viability, T/C (second compound 0.0316 µM, first compound 0.01 µM): 89.3%
viability, T/C [1]: 95.2%
viability, T/C [2]: 81.6%
viability, T/C (second compound 0.1 µM, first compound 0.000316 µM): 104%
viability, T/C (second compound 0.1 µM, first compound 0.001 µM): 82.4%
viability, T/C (second compound 0.1 µM, first compound 0.00316 µM): 82.4%
viability, T/C (second compound 0.1 µM, first compound 0.01 µM): 80.8%
viability, T/C [3]: 88.4%
viability, T/C [4]: 74.7%
viability, T/C (second compound 0.316 µM, first compound 0.000316 µM): 68.3%
viability, T/C (second compound 0.316 µM, first compound 0.001 µM): 65.2%
viability, T/C (second compound 0.316 µM, first compound 0.00316 µM): 75.5%
viability, T/C (second compound 0.316 µM, first compound 0.01 µM): 59.7%
viability, T/C [5]: 60.6%
viability, T/C [6]: 68.4%
viability, T/C (second compound 1 µM, first compound 0.000316 µM): 65.7%
viability, T/C (second compound 1 µM, first compound 0.001 µM): 50.8%
viability, T/C (second compound 1 µM, first compound 0.00316 µM): 61.6%
viability, T/C (second compound 1 µM, first compound 0.01 µM): 62.7%
viability, T/C [7]: 68.8%
viability, T/C [8]: 55.7%

IC50 (second compound 0.0316 µM): > 10 µM
IC50 (second compound 0.1 µM): > 10 µM
IC50 (second compound 0.316 µM): > 10 µM
IC50 (second compound 1 µM): > 10 µM
IC50 (second compound 3.16 µM): > 10 µM
IC50 (second compound 10 µM): > 10 µM
SMILES: CC(Cn1ccc(-c2ccc(C#N)c(Cl)c2)n1)NC(=O)c1cc(C(C)O)[nH]n1 (centres undefined) + Cc1nc(NC(=O)N2CCCC2C(N)=O)sc1-c1ccnc(C(C)(C)C(F)(F)F)c1
viability, T/C [1]: 78.8%
viability, T/C [2]: 98.7%
viability, T/C (second compound 0.0316 µM, first compound 0.316 µM): 84.2%
viability, T/C (second compound 0.0316 µM, first compound 1 µM): 114%
viability, T/C (second compound 0.0316 µM, first compound 3.16 µM): 102%
viability, T/C (second compound 0.0316 µM, first compound 10 µM): 107%
viability, T/C [3]: 86.8%
viability, T/C [4]: 92.8%
viability, T/C (second compound 0.1 µM, first compound 0.316 µM): 97.9%
viability, T/C (second compound 0.1 µM, first compound 1 µM): 81.9%
viability, T/C (second compound 0.1 µM, first compound 3.16 µM): 91.9%
viability, T/C (second compound 0.1 µM, first compound 10 µM): 74.8%
viability, T/C [5]: 106%
viability, T/C [6]: 87.8%
viability, T/C (second compound 0.316 µM, first compound 0.316 µM): 90.8%
viability, T/C (second compound 0.316 µM, first compound 1 µM): 94.5%
viability, T/C (second compound 0.316 µM, first compound 3.16 µM): 86.3%
viability, T/C (second compound 0.316 µM, first compound 10 µM): 92.3%
viability, T/C [7]: 62.9%
viability, T/C [8]: 65.9%
viability, T/C (second compound 1 µM, first compound 0.316 µM): 95.9%
viability, T/C (second compound 1 µM, first compound 1 µM): 72.8%
viability, T/C (second compound 1 µM, first compound 3.16 µM): 92.7%
viability, T/C (second compound 1 µM, first compound 10 µM): 80%
viability, T/C (second compound 3.16 µM, first compound 0.0316 µM): 76.3%
viability, T/C (second compound 3.16 µM, first compound 0.1 µM): 55%
viability, T/C (second compound 3.16 µM, first compound 0.316 µM): 62.8%
viability, T/C (second compound 3.16 µM, first compound 1 µM): 68.4%
viability, T/C (second compound 3.16 µM, first compound 3.16 µM): 85.4%
viability, T/C (second compound 3.16 µM, first compound 10 µM): 72.6%
viability, T/C (second compound 10 µM, first compound 0.0316 µM): 52.5%
viability, T/C (second compound 10 µM, first compound 0.1 µM): 59.7%
viability, T/C (second compound 10 µM, first compound 0.316 µM): 47.7%
viability, T/C (second compound 10 µM, first compound 1 µM): 59.7%
viability, T/C (second compound 10 µM, first compound 3.16 µM): 72%
viability, T/C (second compound 10 µM, first compound 10 µM): 50.5%

From PubChem BioAssay AID1963963 (Molecular Pharmacology Branch, DTP, NCI, 2024)
